Reference: patent publication US20150126464A1, “THERAPEUTIC DRUG AND THERAPEUTIC METHOD FOR NEUROLOGICAL DISEASES INCLUDING ALZHEIMER'S DISEASE ASSOCIATED WITH 1,25D3-MARRS” (priority 2013, published 2015)

Assays:
normal mice [1] = experiment: Location recognition test in normal mice; format: in vivo, mouse; conditions: diosgenin i.p. 7 days, 48 hours training-test interval
Method: Diosgenin (Wako Pure Chemical Industries, Ltd., Osaka, Japan) was dissolved in ethanol at 10 times the final concentration to give a stock solution, and the stock solution was diluted in a 5% aqueous solution of glucose to the final concentration. The diosgenin solution was intraperitoneally administered to normal mice (ddY mice, male, 6 weeks old) once a day (10 μmol/kg/day) for 5 or 6 days. One hour after the last administration, each mouse was housed in a separate open-field box made of polyvinyl chloride (33 cm×28 cm; height: 26.5 cm), habituated to the environment for 10 minutes, and used in the test.
Intraperitoneal administration to the mice of Example 2 and Comparative Example 3 was performed for 7 days. One hour after the last administration, a location recognition test was performed to evaluate the spatial recognition memory. Testing was carried out in a dimly illuminated room (100 lux). The test was performed as described in Tohda, C. et al., Br J Pharmacol. 157, 1427-1440, 2009, written by the inventor and others, except that the time interval between a training session and a test session was 48 hours. As a locomotion index, the path of each mouse was tracked using a digital camera system. The distance each mouse traveled during the 10 minutes was analyzed as locomotion activity with EthoVision 3.0 (Noldus, Wageningen, The Netherlands).

normal mice [2] = experiment: Object recognition memory under continuous administration of 1,25D3-MARRS neutralizing antibody; format: in vivo, mouse; conditions: normal ddY mice, diosgenin i.p.
Method: To neutralize the 1,25D3-MARRS function of normal mice (ddY mice, male, 6 weeks old), a polyclonal antibody specific to 1,25D3-MARRS, i.e., Ab099 clone, was intraventricularly administered in a continuous manner. Ab099 diluted in ACSF (artificial cerebrospinal fluid) was charged into a micro osmotic pump (model: 1007D, Alzet, Cupertino, Calif., USA) and a brain infusion kit 3 (Alzet). The dilution rate of Ab099 was determined depending on the cerebrospinal fluid (CSF) volume and the inflow velocity so that the concentration would be sufficient for Ab099 to act as a neutralizing antibody in CSF. Using stereotaxic apparatus, a brain infusion cannula (brain infusion kit) was inserted into the right ventricle of each mouse anesthetized beforehand (anterior/posterior: −0.22 mm posterior from bregma, medial/lateral: +1.0 mm, dorsal/ventral: −2.5 mm below surface). The entire cannula insertion site was covered with Loctite 454 (Alzet). The pump was subcutaneously implanted in the back of the mouse. The incision in the skin was sutured.
After the start of continuous antibody administration, the intraperitoneal administration of diosgenin was initiated. After 5-day administration of diosgenin, the object recognition memory training was initiated. The next day, the last administration of diosgenin was performed. The test session was initiated 48 hours after the start of the training session. […]

5XFAD mice = experiment: Open field locomotion test in 5XFAD mice; format: in vivo, mouse; conditions: i.p. 20 days, diosgenin 10 μmol/kg, memantine hydrochloride 200 μmol/kg/day, among the four groups
Method: Diosgenin was dissolved in dimethyl sulfoxide (DMSO) at 10 times the final concentration to give a stock solution. The stock solution was diluted in physiological saline to the final concentration immediately before treatment. The diosgenin solution was intraperitoneally administered to 5XFAD mice once a day (10 μmol/kg=4.14 mg/kg) for 20 days. On the last day of administration (Day 20), each mouse was housed in a separate open-field box made of polyvinyl chloride (33 cm×[…]; height: 26.5 cm) and habituated to the environment for 10 min.
For each mouse of Example 1, Comparative Examples 1 and 2, and Reference Example 1, the path during the 10-minute habituation was tracked using a digital camera system. The distance each mouse traveled during the 10 minutes was analyzed as locomotion activity with EthoVision 3.0 (Noldus, Wageningen, The Netherlands). The next day, a novel object recognition test was performed as described in Joyashiki, E. et al., Int J Neurosci, 121, 181-190, 2011 and Tohda, C. et al., Int J Neurosci, 121, 641-648, 2011, written by the inventors and others. Testing was carried out in a dimly illuminated room. […] In the present invention, the ratio (%) of the exploration time for the novel object to the total exploration time was calculated as an exploration preferential index. […]

[3] = system: rat cortical neurons (SD E18); experiment: Measurement of axon density in cortical neurons with or without 1,25D3-MARRS knockdown; conditions: 1 μM, 4 days, vs vehicle
From the text: siRNAs were transfected into rat cortical neurons (SD E18) according to the manufacturer's protocol for nucleofection (Lonza, Bazel, Switzerland). […] Two days after the transfection, the cells were fixed and double-immunostained with a monoclonal antibody against a neuron marker MAP2a/2b (1:500, NeoMarker, Fremont, Calif., USA) and Ab099 clone, a specific antibody for 1,25D3-MARRS (1:500, provided by Dr. Nemere).
Twelve to fourteen images were captured. The lengths of the pNF-H-positive axons were measured using an image analyzer Neurocyte (Kurabo), which automatically traces and measures neurite length without measuring the cell bodies. The sum of the axon lengths was divided by the number of MAP2-positive neurons.
1,25D3-MARRS was knocked down using siRNA transfection. […] Two days after the siRNA transfection, denosomin (1 μM) or a vehicle solution was applied to the cells. Further, after 4-day incubation, the cells were double-immunostained for pNF-H and MAP2 to measure the axonal length per neuron.

traveling speed and distance in open field locomotion test (5XFAD mice): no significant differences
Compound: C[C@@H]1CC[C@@]2(OC1)O[C@H]1C[C@H]3[C@@H]4CC=C5C[C@@H](O)CC[C@]5(C)[C@H]4CC[C@]3(C)[C@H]1[C@@H]2C [diosgenin]
frequency of exploratory behavior for the object moved to a new location (normal mice [1]): > 50%
preferential index, mice treated with ACSF and diosgenin (normal mice [2]; ACSF intraventricular, test 48 hours after training): significantly improved
memory improvement attributable to diosgenin in mice given 1,25D3-MARRS neutralizing antibody (normal mice [2]; Ab099 clone intraventricular continuous): completely offset
density of pNF-H-positive axons per MAP2-positive neuron, control groups ([3]; control (no 1,25D3-MARRS knockdown) cortical neurons): significantly increased
density of pNF-H-positive axons per MAP2-positive neuron, 1,25D3-MARRS knockdown groups ([3]; neurons transfected with siRNA for 1,25D3-MARRS (400 nM)): did not show any difference
